From patent US11046716B2, “Beta-lactamase inhibitors” (priority 2015, dated 2021)

Columns and labels:
KPC-2 = target: T1, KPC-2 (Klebsiella pneumoniae, UniProt Q9F663); experiment: β-lactamase enzyme inhibition assay, KPC-2 (imipenem substrate); type: biochemical; conditions: Class A; imipenem substrate, 300 nm; read-out: KPC-2
T1 construct: made in house; host or cells: E. coli BL21(DE3)
How it was run: (§1)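 Compounds are mixed with purified, untagged recombinant β-lactamase and held 15 min at 37 °C. Substrate is then added: nitrocefin (100 μM final) for OXA-1, imipenem for KPC-2, cefotaxime for SHV-5. Absorbance is followed immediately, and percent inhibition per concentration gives the IC50.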

[1] = test system: P. aeruginosa expressing the Class B carbapenemase VIM-2; experiment: Broth microdilution MIC assay with meropenem, P. aeruginosa VIM-2; type: cell-based; conditions: Fixed Mero (meropenem) 4 μg/mL; P. aerug. 2775 VIM-2
How it was run: (§2)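 Strains grown 3-5 hours in CAMHB are inoculated by the CLSI broth microdilution method onto compound dilutions (16 to 0.125 μg/mL) overlaid with β-lactam at 4 μg/ml final. After 16-20 hours at 37° C, the lowest compound concentration inhibiting growth is taken as the MIC.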

[2] = test system: E. cloacae expressing the Class C P99; experiment: Broth microdilution MIC assay with ceftazidime, E. cloacae P99; type: cell-based; conditions: Fixed CAZ (ceftazidime) 4 μg/mL; E. cl. 144200 p99 AmpC
How it was run: as §2

SHV-5 = target: T2, SHV-5 (Klebsiella pneumoniae, UniProt P0A3M1); experiment: β-lactamase enzyme inhibition assay, SHV-5 (cefotaxime substrate); type: biochemical
T2 construct: made in house; host or cells: E. coli BL21(DE3)
T2 sequence (P0A3M1 22-286): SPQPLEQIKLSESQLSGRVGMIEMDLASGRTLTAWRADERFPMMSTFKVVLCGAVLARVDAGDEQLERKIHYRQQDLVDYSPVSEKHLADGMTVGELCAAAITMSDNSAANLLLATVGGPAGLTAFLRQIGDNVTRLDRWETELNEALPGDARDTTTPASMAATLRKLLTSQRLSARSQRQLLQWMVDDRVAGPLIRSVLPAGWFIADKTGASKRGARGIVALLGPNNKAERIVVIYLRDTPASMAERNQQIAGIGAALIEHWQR
How it was run: as §1

OXA-48 = OXA-48 (UniProt Q6XEC0); experiment: β-lactamase enzyme inhibition assay, Class D oxacillinase; type: biochemical; conditions: read-out: OXA-48
AmpC = target: T3, AmpC (Enterobacter cloacae, UniProt P05364); experiment: β-lactamase enzyme inhibition assay, p99 AmpC (nitrocefin substrate); type: biochemical
T3 construct: made in house; host or cells: E. coli BL21(DE3)
T3 sequence (P05364 21-381): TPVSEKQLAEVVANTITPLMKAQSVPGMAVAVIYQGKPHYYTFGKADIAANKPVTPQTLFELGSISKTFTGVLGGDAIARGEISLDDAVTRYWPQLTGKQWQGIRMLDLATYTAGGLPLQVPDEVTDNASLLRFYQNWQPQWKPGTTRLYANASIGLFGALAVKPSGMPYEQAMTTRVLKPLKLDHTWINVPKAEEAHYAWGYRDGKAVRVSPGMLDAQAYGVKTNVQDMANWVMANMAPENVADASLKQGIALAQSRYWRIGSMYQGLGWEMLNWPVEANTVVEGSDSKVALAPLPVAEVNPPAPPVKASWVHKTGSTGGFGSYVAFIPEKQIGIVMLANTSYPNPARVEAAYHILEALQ
How it was run: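 Compounds are mixed with purified, untagged recombinant β-lactamase and held 15 min at 37 °C. Substrate is then added. Absorbance is followed immediately, and percent inhibition per concentration gives the IC50.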

[3] = test system: K. pneumoniae producing the Class D carbapenemase OXA-48; experiment: Broth microdilution MIC assay with meropenem, K. pneumoniae OXA-48; type: cell-based; conditions: Fixed Mero (meropenem) 4 μg/mL; K. p. 11978 OXA-48
How it was run: as §2

[4] = test system: K. pneumoniae expressing the class A carbapenemase KPC-2 and the class B carbapenemase VIM-4; experiment: Broth microdilution MIC assay with meropenem, K. pneumoniae KPC-2 and VIM-4; type: cell-based; conditions: Fixed Mero (meropenem) 4 μg/mL; K. p. A-1797 KPC-2 VIM-4
How it was run: as §2

VIM-2 = target: T4, VIM-2 (Escherichia coli, UniProt Q5U7L7); experiment: β-lactamase enzyme inhibition assay, VIM-2 (nitrocefin substrate); type: biochemical; conditions: Class B; nitrocefin substrate, 486 nm; read-out: VIM-2
T4 construct: made in house; host or cells: E. coli BL21(DE3)
How it was run: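 First, VIM-2 purified by repeated anion exchange at pH 7.5 is mixed with inhibitor and held 15 min at 37 °C. Next, nitrocefin (final 100 μM) is dispensed and absorbance at 486 nm monitored immediately for 10 min. Rates versus uninhibited controls give IC50.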

[5] = test system: E. coli expressing the Class A Extended Spectrum Beta-Lactamase (ESBL) CTX-M-15; experiment: Broth microdilution MIC assay with ceftazidime, E. coli CTX-M-15; type: cell-based; conditions: Fixed CAZ (ceftazidime) 4 μg/mL; E. coli ESBL4 CTX-M-15
How it was run: as §2

[6] = test system: K. pneumoniae expressing the Class A carbapenemase KPC-2; experiment: Broth microdilution MIC assay with meropenem, K. pneumoniae KPC-2; type: cell-based; conditions: Fixed Mero (meropenem) 4 μg/mL; K. p. 156319 KPC-3
How it was run: as §2

T1 sequence (Q9F663 25-293, looked up): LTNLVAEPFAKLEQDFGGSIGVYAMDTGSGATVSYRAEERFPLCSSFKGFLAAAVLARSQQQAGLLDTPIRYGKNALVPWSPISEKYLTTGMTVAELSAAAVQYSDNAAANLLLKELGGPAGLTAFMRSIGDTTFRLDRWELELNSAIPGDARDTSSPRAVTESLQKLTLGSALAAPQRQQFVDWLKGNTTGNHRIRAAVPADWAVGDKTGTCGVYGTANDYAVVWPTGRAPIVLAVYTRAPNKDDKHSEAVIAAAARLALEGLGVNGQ

Compound	IC50 (KPC-2)	MIC (μg/mL) of Exemplary Compounds in presence of fixed β-lactams: P. aerug. 2775 VIM-2 [1]	MIC (μg/mL) of Exemplary Compounds in presence of fixed β-lactams: E. cl. 144200 p99 AmpC [2]	IC50 (SHV-5)	IC50 (OXA-48)	IC50 (AmpC)	MIC (μg/mL) of Exemplary Compounds in presence of fixed β-lactams: K. p. 11978 OXA-48 [3]	MIC (μg/mL) of Exemplary Compounds in presence of fixed β-lactams: K. p. A-1797 KPC-2 VIM-4 [4]	IC50 (VIM-2)	MIC (μg/mL) of Exemplary Compounds in presence of fixed β-lactams: E. coli ESBL4 CTX-M-15 [5]	MIC (μg/mL) of Exemplary Compounds in presence of fixed β-lactams: K. p. 156319 KPC-3 [6]
O=C(Cc1nnn(CC2CCNCC2)n1)N[C@H]1Cc2cccc(C(=O)O)c2OB1O [Example 99, (R)-2-hydroxy-3-(2-(2-(piperidin-4-ylmethyl)-2H-tetrazol-5-yl)acetamido)-3,4-dihydro-2H-benzo[e][1,2]oxaborinine-8-carboxylic acid]	< 100 nM	C (C represents an MIC of <1 μg/mL)	C (C represents an MIC of <1 μg/mL)	< 100 nM	100 to 1000 nM	< 100 nM	B (B represents an MIC between 1 and 16 μg/mL inclusive)	B (B represents an MIC between 1 and 16 μg/mL inclusive)	100 to 1000 nM	C (C represents an MIC of <1 μg/mL)	C (C represents an MIC of <1 μg/mL)
O=C(Cc1nnn(C2CNC2)n1)N[C@H]1Cc2cccc(C(=O)O)c2OB1O [Example 100, (R)-3-(2-(2-(azetidin-3-yl)-2H-tetrazol-5-yl)acetamido)-2-hydroxy-3,4-dihydro-2H-benzo[e][1,2]oxaborinine-8-carboxylic acid]	100 to 1000 nM	C (C represents an MIC of <1 μg/mL)	C (C represents an MIC of <1 μg/mL)	< 100 nM	< 100 nM	< 100 nM	C (C represents an MIC of <1 μg/mL)	B (B represents an MIC between 1 and 16 μg/mL inclusive)	< 100 nM	C (C represents an MIC of <1 μg/mL)	C (C represents an MIC of <1 μg/mL)
O=C(Cc1nnnn1CCF)N[C@H]1Cc2cccc(C(=O)O)c2OB1O [Example 101, (R)-3-(2-(1-(2-fluoroethyl)-1H-tetrazol-5-yl)acetamido)-2-hydroxy-3,4-dihydro-2H-benzo[e][1,2]oxaborinine-8-carboxylic acid]	< 100 nM	C (C represents an MIC of <1 μg/mL)	C (C represents an MIC of <1 μg/mL)	< 100 nM	< 100 nM	< 100 nM	C (C represents an MIC of <1 μg/mL)	B (B represents an MIC between 1 and 16 μg/mL inclusive)	100 to 1000 nM	C (C represents an MIC of <1 μg/mL)	B (B represents an MIC between 1 and 16 μg/mL inclusive)
NCCc1nnnn1CC(=O)N[C@H]1Cc2cccc(C(=O)O)c2OB1O [Example 102, (R)-3-(2-(5-(2-aminoethyl)-1H-tetrazol-1-yl)acetamido)-2-hydroxy-3,4-dihydro-2H-benzo[e][1,2]oxaborinine-8-carboxylic acid]	< 100 nM	C (C represents an MIC of <1 μg/mL)	C (C represents an MIC of <1 μg/mL)	100 to 1000 nM	100 to 1000 nM	< 100 nM	B (B represents an MIC between 1 and 16 μg/mL inclusive)	B (B represents an MIC between 1 and 16 μg/mL inclusive)	< 100 nM	C (C represents an MIC of <1 μg/mL)	B (B represents an MIC between 1 and 16 μg/mL inclusive)
